Tests used:
AMARE [1] = assay: Pre-emergence action against AMARE, 1280 g/ha; format: in vivo, Amaranthus retroflexus; conditions: scored visually after about 3 weeks vs untreated controls (100% = plants have died)
Method in brief: (§1)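 Compound applied as WP or EC in aqueous spray (0.5% additive, 600 L/ha) to the surface of sandy loam covering freshly sown seeds. After about 3 weeks under good greenhouse conditions, damage is given as visual percentage, 100% meaning plant death.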

SETVI [2] = assay: Pre-emergence action at 320 g/ha against SETVI; format: in vivo, Setaria viridis; conditions: visual scoring after about 3 weeks vs untreated controls
Method in brief: (§2)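 WP/EC formulations applied pre-emergence to covering soil, water rate 600 l/ha, 0.5% additive. Greenhouse, ~3 weeks. Visual % damage vs untreated (0–100%).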

VERPE [3] = assay: Pre-emergence action at 320 g/ha against VERPE; format: in vivo, Veronica persica; conditions: visual scoring after about 3 weeks vs untreated controls
Method in brief: as §2

ECHCG [4] = assay: Pre-emergence action against ECHCG, 1280 g/ha; format: in vivo, Echinochloa crus-galli; conditions: visual scoring after about 3 weeks vs untreated controls, 100% = plants have died, 0% = like control plants
Method in brief: as §1

STEME [5] = assay: Pre-emergence action against STEME, 1280 g/ha; format: in vivo, Stellaria media; conditions: scored visually after about 3 weeks vs untreated controls (100% = plants have died)
Method in brief: as §1

PHBPU = assay: Pre-emergence action at 320 g/ha against PHBPU; format: in vivo; conditions: visual scoring after about 3 weeks vs untreated controls
Method in brief: as §2

VERPE [6] = assay: Pre-emergence action against VERPE, 1280 g/ha; format: in vivo, Veronica persica; conditions: scored visually after about 3 weeks vs untreated controls (100% = plants have died)
Method in brief: as §1

MATIN [7] = assay: Post-emergence action against MATIN, 1.28 kg/ha; format: in vivo, Tripleurospermum inodorum (Matricaria inodora); conditions: dosage 1280 g/ha, visual rating about 3 weeks after treatment vs untreated controls (100% = plants died)
Method in brief: (§3)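 Foliar application at the one-leaf stage: compound as WP or EC in water with 0.5% additive, sprayed at 600 L/ha. Plants are kept about 3 weeks in the greenhouse, then % herbicidal action is estimated visually (100% = death).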

MATIN [8] = assay: Pre-emergence action at 320 g/ha against MATIN; format: in vivo, Tripleurospermum inodorum (Matricaria inodora); conditions: visual scoring after about 3 weeks vs untreated controls
Method in brief: as §2

MATIN [9] = assay: Pre-emergence action against MATIN, 1280 g/ha; format: in vivo, Tripleurospermum inodorum (Matricaria inodora); conditions: scored visually after about 3 weeks vs untreated controls (100% = plants have died)
Method in brief: as §1

AMARE [10] = assay: Pre-emergence action at 320 g/ha against AMARE; format: in vivo, Amaranthus retroflexus; conditions: visual scoring after about 3 weeks vs untreated controls
Method in brief: as §2

POAAN [11] = assay: Post-emergence action against POAAN, 1.28 kg/ha; format: in vivo, Poa annua; conditions: dosage 1280 g/ha, visual rating about 3 weeks after treatment vs untreated controls
Method in brief: as §3

ABUTH [12] = assay: Pre-emergence action against ABUTH, 1280 g/ha; format: in vivo, Abutilon theophrasti; conditions: scored visually after about 3 weeks vs untreated controls (100% = plants have died)
Method in brief: as §1

DIGSA [13] = assay: Post-emergence action against DIGSA, 1.28 kg/ha; format: in vivo, Digitaria sanguinalis; conditions: dosage 1280 g/ha, visual rating about 3 weeks after treatment vs untreated controls
Method in brief: as §3

AVEFA = assay: Pre-emergence action at 320 g/ha against AVEFA; format: in vivo; conditions: visual scoring after about 3 weeks vs untreated controls
Method in brief: as §2

AMARE [14] = assay: Post-emergence action against AMARE, 1.28 kg/ha; format: in vivo, Amaranthus retroflexus; conditions: dosage 1280 g/ha, visual rating about 3 weeks after treatment vs untreated controls (100% = plants died)
Method in brief: as §3

LOLRI [15] = assay: Pre-emergence action against LOLRI, 1280 g/ha; format: in vivo, Lolium rigidum; conditions: visual scoring after about 3 weeks vs untreated controls, 100% = plants have died, 0% = like control plants
Method in brief: as §1

ECHCG [16] = assay: Post-emergence action against ECHCG, 1.28 kg/ha; format: in vivo, Echinochloa crus-galli; conditions: dosage 1280 g/ha, visual rating about 3 weeks after treatment vs untreated controls
Method in brief: as §3

ALOMY [17] = assay: Pre-emergence action at 320 g/ha against ALOMY; format: in vivo, Alopecurus myosuroides; conditions: scored visually after about 3 weeks vs untreated controls (100% = plants have died)
Method in brief: as §2

VERPE [18] = assay: Post-emergence action against VERPE, 1.28 kg/ha; format: in vivo, Veronica persica; conditions: dosage 1280 g/ha, visual rating about 3 weeks after treatment vs untreated controls (100% = plants died)
Method in brief: as §3

ALOMY [19] = assay: Post-emergence action against ALOMY, 1.28 kg/ha; format: in vivo, Alopecurus myosuroides; conditions: dosage 1280 g/ha, visual rating about 3 weeks after treatment vs untreated controls
Method in brief: as §3

KCHSC [20] = assay: Pre-emergence action against KCHSC, 1280 g/ha; format: in vivo, Bassia scoparia; conditions: scored visually after about 3 weeks vs untreated controls (100% = plants have died)
Method in brief: as §1

KCHSC [21] = assay: Post-emergence action against KCHSC, 1.28 kg/ha; format: in vivo, Bassia scoparia; conditions: dosage 1280 g/ha, visual rating about 3 weeks after treatment vs untreated controls (100% = plants died)
Method in brief: as §3

ABUTH [22] = assay: Pre-emergence action at 320 g/ha against ABUTH; format: in vivo, Abutilon theophrasti; conditions: greenhouse, scored visually after about 3 weeks vs untreated controls, 100% = plants have died, 0% = like control plants
Excerpt: b) Seeds of monocotyledonous and dicotyledonous weed plants and crop plants are placed in plastic or organic planting pots and covered with soil. The compounds of the invention, formulated in the form of wettable powders (WP) or as emulsion concentrates (EC), are then applied onto the surface of the covering soil as aqueous suspension or emulsion with addition of 0.5% additive at a water application rate of 600 l/ha (converted). After the treatment, the pots are placed in a greenhouse and kept under good growth conditions for the trial plants. After about 3 weeks, the effect of the preparations is scored visually in comparison with untreated controls as percentages. For example, 100% activity=the plants have died, 0% activity=like control plants. Tables 13 to 26 below show the effects of selected compounds of the general formula (I) on various harmful plants and at an application rate corresponding to 320 g/ha, which were obtained by the experimental procedure mentioned above.

VIOTR = assay: Pre-emergence action at 320 g/ha against VIOTR; format: in vivo, Viola tricolor; conditions: dosage 320 g/ha
Method in brief: as §2

DIGSA [23] = assay: Pre-emergence action against DIGSA, 1280 g/ha; format: in vivo, Digitaria sanguinalis; conditions: visual scoring after about 3 weeks vs untreated controls, 100% = plants have died, 0% = like control plants
Method in brief: as §1

STEME [24] = assay: Post-emergence action against STEME, 1.28 kg/ha; format: in vivo, Stellaria media; conditions: dosage 1280 g/ha, visual rating about 3 weeks after treatment vs untreated controls (100% = plants died)
Method in brief: as §3

DIGSA [25] = assay: Pre-emergence action at 320 g/ha against DIGSA; format: in vivo, Digitaria sanguinalis; conditions: visual scoring after about 3 weeks vs untreated controls
Method in brief: as §2

ABUTH [26] = assay: Post-emergence action against ABUTH, 1.28 kg/ha; format: in vivo, Abutilon theophrasti; conditions: dosage 1280 g/ha, visual rating about 3 weeks after treatment vs untreated controls (100% = plants died)
Method in brief: as §3

ALOMY [27] = assay: Pre-emergence action against ALOMY, 1280 g/ha; format: in vivo, Alopecurus myosuroides; conditions: visual scoring after about 3 weeks vs untreated controls, 100% = plants have died, 0% = like control plants
Method in brief: as §1

SETVI [28] = assay: Pre-emergence action against SETVI, 1280 g/ha; format: in vivo, Setaria viridis; conditions: visual scoring after about 3 weeks vs untreated controls, 100% = plants have died, 0% = like control plants
Method in brief: as §1

POAAN [29] = assay: Pre-emergence action against POAAN, 1280 g/ha; format: in vivo, Poa annua; conditions: visual scoring after about 3 weeks vs untreated controls, 100% = plants have died, 0% = like control plants
Method in brief: as §1

POLCO = assay: Pre-emergence action at 320 g/ha against POLCO; format: in vivo, Fallopia convolvulus (Polygonum convolvulus); conditions: visual scoring after about 3 weeks vs untreated controls
Method in brief: as §2

LOLRI [30] = assay: Post-emergence action against LOLRI, 1.28 kg/ha; format: in vivo, Lolium rigidum; conditions: dosage 1280 g/ha, visual rating about 3 weeks after treatment vs untreated controls
Method in brief: as §3

LOLRI [31] = assay: Pre-emergence action at 320 g/ha against LOLRI; format: in vivo, Lolium rigidum; conditions: visual scoring after about 3 weeks vs untreated controls
Method in brief: as §2

`C[C@@H](Oc1nn(-c2ccccc2F)c(-c2cncnc2)c1Cl)C(=O)O` [VI-018] was tested, and the “Pre-emergence action against AMARE” value (AMARE [1]) was 100%, the “Pre-emergence action against SETVI in %” value (SETVI [2]) was 100% and the “Pre-emergence action against VERPE in %” value (VERPE [3]) was 80%. For the same molecule, the “Pre-emergence action against ECHCG” value (ECHCG [4]) was 100%, the “Pre-emergence action against STEME” value (STEME [5]) was 100% and the “Pre-emergence action against PHBPU in %” value (PHBPU) was 90%. The “Pre-emergence action against VERPE” value (VERPE [6]) was 100%, the “Post-emergence action against MATIN” value (MATIN [7]) was 100% and the “Pre-emergence action against MATIN in %” value (MATIN [8]) was 90%. For the same molecule, the “Pre-emergence action against MATIN” value (MATIN [9]) was 100%, the “Pre-emergence action against AMARE in %” value (AMARE [10]) was 100% and the “Post-emergence action against POAAN” value (POAAN [11]) was 100%. The “Pre-emergence action against ABUTH” value (ABUTH [12]) was 90%, the “Post-emergence action against DIGSA” value (DIGSA [13]) was 100% and the “Pre-emergence action against AVEFA in %” value (AVEFA) was 80%. The “Post-emergence action against AMARE” value (AMARE [14]) was 90%, the “Pre-emergence action against LOLRI” value (LOLRI [15]) was 100% and the “Post-emergence action against ECHCG” value (ECHCG [16]) was 100%. For the same molecule, the “Pre-emergence action at 320 g/ha against ALOMY in %” value (ALOMY [17]) was 100%, the “Post-emergence action against VERPE” value (VERPE [18]) was 100% and the “Post-emergence action against ALOMY” value (ALOMY [19]) was 100%. For the same molecule, the “Pre-emergence action against KCHSC” value (KCHSC [20]) was 100%, the “Post-emergence action against KCHSC” value (KCHSC [21]) was 90% and the “Pre-emergence action at 320 g/ha against ABUTH in %” value (ABUTH [22]) was 80%. The “Pre-emergence action against VIOTR in %” value (VIOTR) was 90%, the “Pre-emergence action against DIGSA” value (DIGSA [23]) was 100% and the “Post-emergence action against STEME” value (STEME [24]) was 90%. The “Pre-emergence action against DIGSA in %” value (DIGSA [25]) was 100%, the “Post-emergence action against ABUTH” value (ABUTH [26]) was 90% and the “Pre-emergence action against ALOMY” value (ALOMY [27]) was 100%. The “Pre-emergence action against SETVI” value (SETVI [28]) was 100%, the “Pre-emergence action against POAAN” value (POAAN [29]) was 100% and the “Pre-emergence action against POLCO in %” value (POLCO) was 90%. The “Post-emergence action against LOLRI” value (LOLRI [30]) was 90% and the “Pre-emergence action against LOLRI in %” value (LOLRI [31]) was 100%.

Reference: patent publication US12180187B2, “1-phenyl-5-azinylpyrazolyl-3-oxyalkyl acids and their use for controlling unwanted plant growth” (BAYER AKTIENGESELLSCHAFT, priority 2019, dated 2024)
